{"source": "patent US20240182513A1", "about": "“SEPARATION OF METAL IONS FROM A SAMPLE USING GLYCOLIPIDS” (ARIZONA BOARD OF REGENTS ON BEHALF OF THE UNIVERSITY OF …, priority 2021, published 2024)", "key": {"[1]": {"assay": "Example 2.1 rhamnolipid precipitation, filtration, centrifugation: lead", "conditions": "for Treatment 2: Rhamnolipid and Filtration Cf / Treatment 3: Rhamnolipid and Centrifugation Cc / Treatment 1: Rhamnolipid Only Cr: lead concentration after treatment; for Treatment 1: Rhamnolipid Only (Rr) efficiency of removal / Treatment 2: Rhamnolipid and Filtration (Rf) efficiency of removal / Treatment 3: Rhamnolipid and Centrifugation (Rc) efficiency of removal: lead", "protocol": "(§1) Structural variants of synthetic glycolipids were used to show the effect of the number and length of the hydrophobic tail(s) on rhamnolipid as a chemical precipitant. […] Solutions (10 mM) were made using nanopure water (≥18 MΩ-cm) then adjusted to a pH of 6.9±0.05 with HNO3 and NaOH. These solutions were made in advance and stored in the cold room for up to one month. They were brought to room temperature before each experiment.\n(§2) Three metals were tested for binding with rhamnolipid. Lead as […] (Fisher Scientific, Waltham, MA, 99% purity), was chosen to represent a metal with high rhamnolipid-metal conditional stability constant; lanthanum as La(NO3)3 6(H2O) (Sigma-Aldrich, St. Louis, MO, 99.99% purity) was chosen as a representative REE; and magnesium as Mg(NO3)2 6(H2O) (Sigma-Aldrich, St. Louis, MO, 99% purity) was chosen to represent a metal with a low rhamnolipid-metal conditional stability constant (Hogan et al., 2017). Metal solutions (5 mM) were made using nanopure water (≥18 MΩ-cm) in 20 ml glass scintillation vials. All solutions were used within 15 min to ensure minimal adsorption to the glass vial.\n(§3) Three glycolipid-based treatments were evaluated to remove metal from solution: (1) the addition of glycolipid with no further treatment (gravitational precipitation), (2) the addition of a glycolipid followed by filtration or (3) the addition of a glycolipid followed by centrifugation. Each metal (Pb, La, and Mg) was evaluated separately with each of the glycolipid structures. For each experiment, a metal solution was mixed with a glycolipid solution in a 1.7 ml reaction tube at varying molar ratios of glycolipid to metal: 0:1 (glycolipid-free control), 2:1, 5:1, and 10:1. The reactions were mixed in the order of nanopure water (≥18 MΩ-cm), glycolipid solution (10 mM), then metal solution (5 mM). The metal and glycolipid solutions were continuously stirred as they were aliquoted into the reaction tubes. The experiment was performed in triplicate.\n(§4) The reaction tubes were mixed overnight (16 to 24 h) and then three samples were collected from each tube to measure the effect of each of the three treatments: a glycolipid only treatment sample, a filtration treatment sample, and a centrifugation treatment sample. Briefly, for the glycolipid only treatment samples all tubes were vortexed for approximately 5 sec immediately before removing 0.1 ml into a dilution tube of 2% trace metal grade nitric acid (12 to 14 ml) to minimize the settling of particles. For the filtration samples each reaction tube was vortexed for 5 sec and then a 0.6 ml aliquot was collected with a 1 ml syringe. A GHP acrodisc disk filter (hydrophilic polypropylene membrane, 0.45 μm pore size, 25 mm disc diameter) from Pall Life Sciences (Port Washington, New York) was then placed onto the end of the syringe and the solution was pushed through the filter. The void space in the disk filter holds approximately 0.5 ml, therefore around 0.1 ml of filtrate was collected into a dilution tube. For the centrifugation sample, the remaining solution was centrifuged at 10,000 RCF for 15 min. Approximately 0.1 ml of the supernatant was aliquoted into a dilution tube. Following collection, all samples were taken for metal analysis using ICP-MS."}, "[2]": {"assay": "Example 2.1 rhamnolipid precipitation, filtration, centrifugation: lanthanum", "conditions": "for Treatment 2: Rhamnolipid and Filtration Cf / Treatment 3: Rhamnolipid and Centrifugation Cc / Treatment 1: Rhamnolipid Only Cr: lanthanum concentration after treatment; for Treatment 1: Rhamnolipid Only (Rr) efficiency of removal / Treatment 2: Rhamnolipid and Filtration (Rf) efficiency of removal / Treatment 3: Rhamnolipid and Centrifugation (Rc) efficiency of removal: lanthanum", "protocol": "as §1, §2, §3, §4"}, "[3]": {"assay": "Example 2.1 rhamnolipid precipitation, filtration, centrifugation: magnesium", "conditions": "for Treatment 2: Rhamnolipid and Filtration Cf / Treatment 3: Rhamnolipid and Centrifugation Cc / Treatment 1: Rhamnolipid Only Cr: magnesium concentration after treatment; for Treatment 1: Rhamnolipid Only (Rr) efficiency of removal / Treatment 2: Rhamnolipid and Filtration (Rf) efficiency of removal / Treatment 3: Rhamnolipid and Centrifugation (Rc) efficiency of removal: magnesium", "protocol": "as §1, §2, §3, §4"}}, "data": [{"compound": "CCCCCCCCCCCCCCCC(CC(=O)O)OC1O[C@@H](C)[C@H](O)[C@@H](O)[C@H]1O", "note": "(stereo partly shown) [Rha C18]", "values": [{"measurement": "Treatment 2: Rhamnolipid and Filtration Cf", "setting": "[1]; molar ratio 2 to 1", "value": "0.027 ± 0.001", "unit": "mmol/L"}, {"measurement": "Treatment 3: Rhamnolipid and Centrifugation Cc", "setting": "[1]; molar ratio 2 to 1", "value": "0.132 ± 0.001", "unit": "mmol/L"}, {"measurement": "Treatment 1: Rhamnolipid Only Cr", "setting": "[1]; molar ratio 5 to 1", "value": "0.044 ± 0.008", "unit": "mmol/L"}, {"measurement": "Treatment 2: Rhamnolipid and Filtration Cf", "setting": "[1]; molar ratio 5 to 1", "value": "0.000 ± 0.002", "unit": "mmol/L"}, {"measurement": "Treatment 3: Rhamnolipid and Centrifugation Cc", "setting": "[1]; molar ratio 5 to 1", "value": "0.005 ± 0.002", "unit": "mmol/L"}, {"measurement": "Treatment 1: Rhamnolipid Only Cr", "setting": "[1]; molar ratio 10 to 1", "value": "0.255 ± 0.015", "unit": "mmol/L"}, {"measurement": "Treatment 2: Rhamnolipid and Filtration Cf", "setting": "[1]; molar ratio 10 to 1", "value": "0.000 ± 0.001", "unit": "mmol/L"}, {"measurement": "Treatment 3: Rhamnolipid and Centrifugation Cc", "setting": "[1]; molar ratio 10 to 1", "value": "0.014 ± 0.001", "unit": "mmol/L"}, {"measurement": "Treatment 1: Rhamnolipid Only Cr", "setting": "[1]; molar ratio rhamnolipid:lead 2 to 1", "value": "0.123 ± 0.002", "unit": "mmol/L"}, {"measurement": "Treatment 1: Rhamnolipid Only (Rr) efficiency of removal", "setting": "[1]; molar ratio 2 to 1", "value": "(54.8%)"}, {"measurement": "Treatment 2: Rhamnolipid and Filtration (Rf) efficiency of removal", "setting": "[1]; molar ratio 2 to 1", "value": "(90.1%)"}, {"measurement": "Treatment 3: Rhamnolipid and Centrifugation (Rc) efficiency of removal", "setting": "[1]; molar ratio 2 to 1", "value": "(51.6%)"}, {"measurement": "Treatment 1: Rhamnolipid Only (Rr) efficiency of removal", "setting": "[1]; molar ratio 5 to 1", "value": "(83.9%)"}, {"measurement": "Treatment 2: Rhamnolipid and Filtration (Rf) efficiency of removal", "setting": "[1]; molar ratio 5 to 1", "value": "(99.9%)"}, {"measurement": "Treatment 3: Rhamnolipid and Centrifugation (Rc) efficiency of removal", "setting": "[1]; molar ratio 5 to 1", "value": "(98.1%)"}, {"measurement": "Treatment 1: Rhamnolipid Only (Rr) efficiency of removal", "setting": "[1]; molar ratio 10 to 1", "value": "(6.2%)"}, {"measurement": "Treatment 2: Rhamnolipid and Filtration (Rf) efficiency of removal", "setting": "[1]; molar ratio 10 to 1", "value": "(99.9%)"}, {"measurement": "Treatment 3: Rhamnolipid and Centrifugation (Rc) efficiency of removal", "setting": "[1]; molar ratio 10 to 1", "value": "(94.7%)"}, {"measurement": "Treatment 2: Rhamnolipid and Filtration Cf", "setting": "[2]; molar ratio 2 to 1", "value": "0.116 ± 0.029", "unit": "mmol/L"}, {"measurement": "Treatment 3: Rhamnolipid and Centrifugation Cc", "setting": "[2]; molar ratio 2 to 1", "value": "0.228 ± 0.013", "unit": "mmol/L"}, {"measurement": "Treatment 1: Rhamnolipid Only Cr", "setting": "[2]; molar ratio 5 to 1", "value": "0.121 ± 0.009", "unit": "mmol/L"}, {"measurement": "Treatment 2: Rhamnolipid and Filtration Cf", "setting": "[2]; molar ratio 5 to 1", "value": "0.001 ± 0.002", "unit": "mmol/L"}, {"measurement": "Treatment 3: Rhamnolipid and Centrifugation Cc", "setting": "[2]; molar ratio 5 to 1", "value": "0.088 ± 0.003", "unit": "mmol/L"}, {"measurement": "Treatment 1: Rhamnolipid Only Cr", "setting": "[2]; molar ratio 10 to 1", "value": "0.331 ± 0.024", "unit": "mmol/L"}, {"measurement": "Treatment 2: Rhamnolipid and Filtration Cf", "setting": "[2]; molar ratio 10 to 1", "value": "0.004 ± 0.001", "unit": "mmol/L"}, {"measurement": "Treatment 3: Rhamnolipid and Centrifugation Cc", "setting": "[2]; molar ratio 10 to 1", "value": "0.051 ± 0.010", "unit": "mmol/L"}, {"measurement": "Treatment 1: Rhamnolipid Only Cr", "setting": "[2]; molar ratio rhamnolipid:lanthanum 2 to 1", "value": "0.249 ± 0.009", "unit": "mmol/L"}, {"measurement": "Treatment 1: Rhamnolipid Only (Rr) efficiency of removal", "setting": "[2]; molar ratio 2 to 1", "value": "(16.5%)"}, {"measurement": "Treatment 2: Rhamnolipid and Filtration (Rf) efficiency of removal", "setting": "[2]; molar ratio 2 to 1", "value": "(61.1%)"}, {"measurement": "Treatment 3: Rhamnolipid and Centrifugation (Rc) efficiency of removal", "setting": "[2]; molar ratio 2 to 1", "value": "(23.4%)"}, {"measurement": "Treatment 1: Rhamnolipid Only (Rr) efficiency of removal", "setting": "[2]; molar ratio 5 to 1", "value": "(59.4%)"}, {"measurement": "Treatment 2: Rhamnolipid and Filtration (Rf) efficiency of removal", "setting": "[2]; molar ratio 5 to 1", "value": "(99.5%)"}, {"measurement": "Treatment 3: Rhamnolipid and Centrifugation (Rc) efficiency of removal", "setting": "[2]; molar ratio 5 to 1", "value": "(70.6%)"}, {"measurement": "Treatment 2: Rhamnolipid and Filtration (Rf) efficiency of removal", "setting": "[2]; molar ratio 10 to 1", "value": "(98.8%)"}, {"measurement": "Treatment 3: Rhamnolipid and Centrifugation (Rc) efficiency of removal", "setting": "[2]; molar ratio 10 to 1", "value": "(82.8%)"}, {"measurement": "Treatment 2: Rhamnolipid and Filtration Cf", "setting": "[3]; molar ratio 2 to 1", "value": "0.169 ± 0.015", "unit": "mmol/L"}, {"measurement": "Treatment 3: Rhamnolipid and Centrifugation Cc", "setting": "[3]; molar ratio 2 to 1", "value": "0.216 ± 0.002", "unit": "mmol/L"}, {"measurement": "Treatment 1: Rhamnolipid Only Cr", "setting": "[3]; molar ratio 5 to 1", "value": "0.215 ± 0.002", "unit": "mmol/L"}, {"measurement": "Treatment 2: Rhamnolipid and Filtration Cf", "setting": "[3]; molar ratio 5 to 1", "value": "0.056 ± 0.012", "unit": "mmol/L"}, {"measurement": "Treatment 3: Rhamnolipid and Centrifugation Cc", "setting": "[3]; molar ratio 5 to 1", "value": "0.141 ± 0.001", "unit": "mmol/L"}, {"measurement": "Treatment 1: Rhamnolipid Only Cr", "setting": "[3]; molar ratio 10 to 1", "value": "0.304 ± 0.001", "unit": "mmol/L"}, {"measurement": "Treatment 2: Rhamnolipid and Filtration Cf", "setting": "[3]; molar ratio 10 to 1", "value": "0.017 ± 0.002", "unit": "mmol/L"}, {"measurement": "Treatment 3: Rhamnolipid and Centrifugation Cc", "setting": "[3]; molar ratio 10 to 1", "value": "0.107 ± 0.004", "unit": "mmol/L"}, {"measurement": "Treatment 1: Rhamnolipid Only Cr", "setting": "[3]; molar ratio rhamnolipid:magnesium 2 to 1", "value": "0.265 ± 0.002", "unit": "mmol/L"}, {"measurement": "Treatment 1: Rhamnolipid Only (Rr) efficiency of removal", "setting": "[3]; molar ratio 2 to 1", "value": "(12.1%)"}, {"measurement": "Treatment 2: Rhamnolipid and Filtration (Rf) efficiency of removal", "setting": "[3]; molar ratio 2 to 1", "value": "(37.0%)"}, {"measurement": "Treatment 3: Rhamnolipid and Centrifugation (Rc) efficiency of removal", "setting": "[3]; molar ratio 2 to 1", "value": "(20.5%)"}, {"measurement": "Treatment 1: Rhamnolipid Only (Rr) efficiency of removal", "setting": "[3]; molar ratio 5 to 1", "value": "(19.5%)"}, {"measurement": "Treatment 2: Rhamnolipid and Filtration (Rf) efficiency of removal", "setting": "[3]; molar ratio 5 to 1", "value": "(79.0%)"}, {"measurement": "Treatment 3: Rhamnolipid and Centrifugation (Rc) efficiency of removal", "setting": "[3]; molar ratio 5 to 1", "value": "(47.4%)"}, {"measurement": "Treatment 2: Rhamnolipid and Filtration (Rf) efficiency of removal", "setting": "[3]; molar ratio 10 to 1", "value": "(93.7%)"}, {"measurement": "Treatment 3: Rhamnolipid and Centrifugation (Rc) efficiency of removal", "setting": "[3]; molar ratio 10 to 1", "value": "(60.1%)"}]}]}
